Assay results taken from patent EP4813989A1, “CRYSTAL, PHARMACEUTICAL COMPOSITION, PREPARATION METHOD THEREFOR, AND USE THEREOF” (TYK Medicines, Inc., priority 2023, dated 2025).

What was measured:
Type in all cases: physicochemical
[1] = Dynamic vapor sorption (DVS) hygroscopicity
Experimental: Dynamic vapor sorption (DVS) was used to investigate hygroscopicities of an active pharmaceutical ingredient in different crystal forms.
Determination method: • instrument: dynamic vapor sorption analyzer; temperature: 25°C; protective gas and flow rate: N2, 200 mL/min; • dm/dt: 0.002%/min; RH range: 0%RH-100%RH; cycle: 1 full cycle.

[2] = High-humidity test, related substances by HPLC; conditions: 90%RH±5%RH; for Impurity content RRT0.55 / Impurity content RRT0.66 / Impurity content RRT0.71 / Impurity content RRT0.94 / Impurity content RRT1.02 / Impurity content RRT1.06 / Impurity content RRT1.08 / Impurity content RRT1.15 / Total impurities: open
From the text: An investigation method for the high-humidity test can be seen in Table 12 below.
Results of related substances in each crystal form under the high-humidity condition (90%RH±5%RH) can be seen in Table 16.
HPLC detection results of related substances under the high-humidity condition can be seen as follows: Table 16

[3] = Light exposure test, related substances by HPLC; conditions: for Impurity content RRT0.55 / Impurity content RRT0.66 / Impurity content RRT0.71 / Impurity content RRT0.94 / Impurity content RRT1.02 / Impurity content RRT1.06 / Impurity content RRT1.08 / Impurity content RRT1.15 / Total impurities: 4500lx±500lx, open
From the text: An investigation method for the light exposure test can be seen in Table 13 below.
Results of related substances in each crystal form under the light exposure condition (4500lx±500lx) can be seen in Table 17.
HPLC detection results of related substances under the light exposure condition can be seen as follows: Table 17

[4] = Accelerated test, related substances by HPLC; conditions: 40°C±2°C, 75%RH±5%RH; for Impurity content RRT0.55 / Impurity content RRT0.66 / Impurity content RRT0.71 / Impurity content RRT0.94 / Impurity content RRT1.02 / Impurity content RRT1.06 / Impurity content RRT1.08 / Impurity content RRT1.15 / Total impurities: open
Experimental: An investigation method for the accelerated test can be seen in Table 14 below.
Change results of related substances in each crystal form under the accelerated condition (40°C±2°C, 75%RH±5%RH) can be seen in Table 18.
HPLC detection results of related substances under the accelerated condition can be seen as follows: Table 18

[5] = Flowability test (angle of repose)
Experimental: A flowability determination method was as follows: an angle of repose was determined by using a device composed of 2 to 3 funnels connected in series in a staggered manner, and drug powder was slowly and uniformly passed through the funnels onto a stationary base with a diameter d, so as to form a symmetric powder pile with a single layer of powder at the bottom. During the formation of the powder pile, a height of the funnels was maintained within 2-4 cm from a top of the powder pile, a height h of the cone was determined, and the angle of repose was calculated as tanθ=h/(d/2).

C[C@@H](Nc1ccn2ncc(C3=NOC(C)(C)N3)c2n1)c1cc(F)cc(F)c1F [crystal form A]
Hygroscopicity (conclusion) [1]: did not have hygroscopicity under conventional conditions | DVS weight loss ([1]; at 0% humidity, 25°C): 3-4% | DVS hygroscopicity ([1]; humidity 90% or more): obvious hygroscopicity | DVS weight gain ([1]; humidity increased from 0% to 20%): significant weight gain | DVS hygroscopic weight gain ([1]; humidity increased from 20% to 80%): almost no hygroscopic weight gain | Increase of impurity RRT1.02 content ([2]; 32 days): no essential changes | Increase of impurity RRT1.08 content ([2]; 32 days): no essential change | Increase of total impurities ([2]; 32 days): 0.03% | Impurity content RRT0.55 ([2]; 0 day): 0.03% | Impurity content RRT0.66 ([2]; 0 day): 0.18% | Impurity content RRT0.71 ([2]; 0 day): 0.15% | Impurity content RRT0.94 ([2]; 0 day): 0.04% | Impurity content RRT1.02 ([2]; 0 day): 0.28% | Impurity content RRT1.06 ([2]; 0 day): 0.07% | Impurity content RRT1.08 ([2]; 0 day): 0.16% | Impurity content RRT1.15 ([2]; 0 day): 0.03% | Total impurities ([2]; 0 day): 0.95% | Impurity content RRT0.55 ([2]; 5 days): 0.03% | Impurity content RRT0.66 ([2]; 5 days): 0.20% | Impurity content RRT0.71 ([2]; 5 days): 0.16% | Impurity content RRT0.94 ([2]; 5 days): 0.03% | Impurity content RRT1.02 ([2]; 5 days): 0.31% | Impurity content RRT1.06 ([2]; 5 days): 0.09% | Impurity content RRT1.08 ([2]; 5 days): 0.21% | Impurity content RRT1.15 ([2]; 5 days): 0.04% | Total impurities ([2]; 5 days): 1.07% | Impurity content RRT0.55 ([2]; 11 days): 0.03% | Impurity content RRT0.66 ([2]; 11 days): 0.20% | Impurity content RRT0.71 ([2]; 11 days): 0.16% | Impurity content RRT0.94 ([2]; 11 days): 0.03% | Impurity content RRT1.02 ([2]; 11 days): 0.30% | Impurity content RRT1.06 ([2]; 11 days): 0.08% | Impurity content RRT1.08 ([2]; 11 days): 0.21% | Impurity content RRT1.15 ([2]; 11 days): 0.03% | Total impurities ([2]; 11 days): 1.05% | Impurity content RRT0.55 ([2]; 32 days): 0.03% | Impurity content RRT0.66 ([2]; 32 days): 0.18% | Impurity content RRT0.71 ([2]; 32 days): 0.16% | Impurity content RRT0.94 ([2]; 32 days): 0.05% | Impurity content RRT1.02 ([2]; 32 days): 0.26% | Impurity content RRT1.06 ([2]; 32 days): 0.06% | Impurity content RRT1.08 ([2]; 32 days): 0.18% | Impurity content RRT1.15 ([2]; 32 days): 0.05% | Total impurities ([2]; 32 days): 0.98% | Increase of impurity RRT0.66 content ([3]; 4500 lx±500 lx, 32 days): 0.09% | Increase of impurity RRT0.71 content ([3]; 4500 lx±500 lx, 32 days): not increased | Increase of impurity RRT1.02 content ([3]; 4500 lx±500 lx, 32 days): not increased | Increase of impurity RRT1.08 content ([3]; 4500 lx±500 lx, 32 days): 0.09% | Increase of total impurities ([3]; 4500 lx±500 lx, 32 days): 0.13% | Impurity content RRT0.55 ([3]; 0 day): 0.03% | Impurity content RRT0.66 ([3]; 0 day): 0.18% | Impurity content RRT0.71 ([3]; 0 day): 0.15% | Impurity content RRT0.94 ([3]; 0 day): 0.04% | Impurity content RRT1.02 ([3]; 0 day): 0.28% | Impurity content RRT1.06 ([3]; 0 day): 0.07% | Impurity content RRT1.08 ([3]; 0 day): 0.16% | Impurity content RRT1.15 ([3]; 0 day): 0.03% | Total impurities ([3]; 0 day): 0.95% | Impurity content RRT0.55 ([3]; 5 days): 0.03% | Impurity content RRT0.66 ([3]; 5 days): 0.21% | Impurity content RRT0.71 ([3]; 5 days): 0.14% | Impurity content RRT0.94 ([3]; 5 days): 0.04% | Impurity content RRT1.02 ([3]; 5 days): 0.30% | Impurity content RRT1.06 ([3]; 5 days): 0.08% | Impurity content RRT1.08 ([3]; 5 days): 0.20% | Impurity content RRT1.15 ([3]; 5 days): 0.04% | Total impurities ([3]; 5 days): 1.03% | Impurity content RRT0.55 ([3]; 11 days): 0.03% | Impurity content RRT0.66 ([3]; 11 days): 0.22% | Impurity content RRT0.71 ([3]; 11 days): 0.15% | Impurity content RRT0.94 ([3]; 11 days): 0.03% | Impurity content RRT1.02 ([3]; 11 days): 0.31% | Impurity content RRT1.06 ([3]; 11 days): 0.07% | Impurity content RRT1.08 ([3]; 11 days): 0.22% | Impurity content RRT1.15 ([3]; 11 days): 0.04% | Total impurities ([3]; 11 days): 1.08% | Impurity content RRT0.55 ([3]; 32 days): 0.03% | Impurity content RRT0.66 ([3]; 32 days): 0.27% | Impurity content RRT0.71 ([3]; 32 days): 0.10% | Impurity content RRT0.94 ([3]; 32 days): 0.07% | Impurity content RRT1.02 ([3]; 32 days): 0.28% | Impurity content RRT1.06 ([3]; 32 days): 0.06% | Impurity content RRT1.08 ([3]; 32 days): 0.25% | Impurity content RRT1.15 ([3]; 32 days): 0.02% | Total impurities ([3]; 32 days): 1.08% | Increase of impurity RRT1.08 content ([4]; 32 days): 0.04% | Impurity content RRT0.55 ([4]; 0 day): 0.03% | Impurity content RRT0.66 ([4]; 0 day): 0.18% | Impurity content RRT0.71 ([4]; 0 day): 0.15% | Impurity content RRT0.94 ([4]; 0 day): 0.04% | Impurity content RRT1.02 ([4]; 0 day): 0.28% | Impurity content RRT1.06 ([4]; 0 day): 0.07% | Impurity content RRT1.08 ([4]; 0 day): 0.16% | Impurity content RRT1.15 ([4]; 0 day): 0.03% | Total impurities ([4]; 0 day): 0.95% | Impurity content RRT0.55 ([4]; 5 days): 0.03% | Impurity content RRT0.66 ([4]; 5 days): 0.20% | Impurity content RRT0.71 ([4]; 5 days): 0.16% | Impurity content RRT0.94 ([4]; 5 days): 0.04% | Impurity content RRT1.02 ([4]; 5 days): 0.30% | Impurity content RRT1.06 ([4]; 5 days): 0.08% | Impurity content RRT1.08 ([4]; 5 days): 0.18% | Impurity content RRT1.15 ([4]; 5 days): 0.03% | Total impurities ([4]; 5 days): 1.02% | Impurity content RRT0.55 ([4]; 11 days): 0.04% | Impurity content RRT0.66 ([4]; 11 days): 0.20% | Impurity content RRT0.71 ([4]; 11 days): 0.17% | Impurity content RRT0.94 ([4]; 11 days): 0.03% | Impurity content RRT1.02 ([4]; 11 days): 0.33% | Impurity content RRT1.06 ([4]; 11 days): 0.09% | Impurity content RRT1.08 ([4]; 11 days): 0.25% | Impurity content RRT1.15 ([4]; 11 days): 0.04% | Total impurities ([4]; 11 days): 1.14% | Impurity content RRT0.55 ([4]; 32 days): 0.04% | Impurity content RRT0.66 ([4]; 32 days): 0.20% | Impurity content RRT0.71 ([4]; 32 days): 0.16% | Impurity content RRT0.94 ([4]; 32 days): 0.04% | Impurity content RRT1.02 ([4]; 32 days): 0.27% | Impurity content RRT1.06 ([4]; 32 days): 0.07% | Impurity content RRT1.08 ([4]; 32 days): 0.20% | Impurity content RRT1.15 ([4]; 32 days): 0.06% | Total impurities ([4]; 32 days): 1.03% | angle of repose [5]: approximately 32.7 °
